Legend:
11β-hsd-1 enzyme [1] = target: T1, 11β-hsd-1 enzyme (Homo sapiens, UniProt P28845); test: biochemical; conditions: read-out: % Inh @ 0.1 mM; for inhibition at 100 µM: Table 2, inhibitor 0.1 mM as printed
How it was run: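 Human 11β-HSD-1 (5 nM) pre-incubated ≥30 min with inhibitor and 500 μM NADPH in triethanolamine buffer pH 8.0 with NaCl, n-dodecyl β-D-maltoside and β-ME; reaction started with G6P/G6PDH/MgCl2 regenerating system and 200 nM 3H-cortisone, run 60 min, stopped with DMSO. 3H-cortisol and substrate separated by radio-HPLC; percent inhibition from peak areas.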

11β-hsd-1 enzyme [2] = target: T1, 11β-hsd-1 enzyme; test: biochemical
How it was run: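 Enzyme (5 nM) pre-incubated ≥30 min at RT with inhibitor and 500 μM NADPH in triethanolamine buffer pH 8.0; reaction started with glucose-6-phosphate regenerating system and 200 nM 3H-cortisone, stopped with DMSO after 60 min. Product quantified by radio-HPLC; Kiapp from Morrison tight-binding equation.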

T1 sequence (P28845 whole entry, species assumed): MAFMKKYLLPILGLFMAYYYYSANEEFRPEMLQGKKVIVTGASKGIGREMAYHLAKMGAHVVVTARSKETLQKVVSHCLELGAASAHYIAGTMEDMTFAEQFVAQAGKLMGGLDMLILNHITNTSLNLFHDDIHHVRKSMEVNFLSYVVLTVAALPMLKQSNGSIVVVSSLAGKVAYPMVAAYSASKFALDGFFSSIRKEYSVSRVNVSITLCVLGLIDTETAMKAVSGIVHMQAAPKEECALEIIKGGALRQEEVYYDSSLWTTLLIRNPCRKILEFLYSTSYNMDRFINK

Structure (SMILES)	inhibition (11β-hsd-1 enzyme [1]) [%]	Ki (11β-hsd-1 enzyme [2]) [nM]	inhibition at 100 µM (11β-hsd-1 enzyme [1]) [%]
Cc1cccc(NS(=O)(=O)N2CCCCCCC2)n1 [Example 127, N-(6-methylpyridin-2-yl)azocane-1-sulfonamide]	91.8	25	–
Cc1cccc(NS(=O)(=O)N2CCN(c3ncc(C(F)(F)F)cc3Cl)CC2)n1 [Example 128, 4-[3-chloro-5-(trifluoromethyl)pyridin-2-yl]-N-(6-methylpyridin-2-yl)piperazine-1-sulfonamide]	100	13	–
Cc1cccc(NS(=O)(=O)N2CCN(c3cccc(C)n3)CC2)n1 [Example 131, N4-bis(6-methylpyridin-2-yl)piperazine-1-sulfonamide]	93.2	29	–
Cc1cccc(NS(=O)(=O)N2CCN(c3ncccc3C#N)CC2)n1 [Example 132, 4-(3-cyanopyridin-2-yl)-N-(6-methylpyridin-2-yl)piperazine-1-sulfonamide]	74.8	46	–
COc1cccc(N2CCN(S(=O)(=O)Nc3cccc(C)n3)CC2)n1 [Example 136, 4-(6-methoxypyridin-2-yl)-N-(6-methylpyridin-2-yl)piperazine-1-sulfonamide]	93.7	6.5	–
Cc1cccc(NS(=O)(=O)N2CCCN(c3ncccc3C#N)CC2)n1 [Example 139, 4-(3-cyanopyridin-2-yl)-N-(6-methylpyridin-2-yl)-14-diazepane-1-sulfonamide]	86.5	88	–
CCc1cccc(NS(=O)(=O)N2CCN(c3ncc(-c4ccc(OC)cc4)cn3)CC2)n1 [Example 144, N-(6-ethylpyridin-2-yl)-4-[5-(4-methoxyphenyl)pyrimidin-2-yl]piperazine-1-sulfonamide]	100	1	–
CCc1cccc(NS(=O)(=O)N2CCN(c3nc4ncccc4o3)CC2)n1 [Example 145, N-(6-ethylpyridin-2-yl)-4-[13]oxazolo[45-b]pyridin-2-ylpiperazine-1-sulfanamide]	79.2	62	–
CCc1cccc(NS(=O)(=O)N2CCN(c3nc4nc(C)ccc4o3)CC2)n1 [Example 149, N-(6-ethylpyridin-2-yl)-4-(5-methyl[13]oxazolo[45-b]pyridin-2-yl)piperazine-1-sulfonamide]	78.2	280	–
Cc1cccc(NS(=O)(=O)N2CCCN(c3nc4cc(Cl)ccc4o3)CC2)n1 [Example 153, 4-(5-chloro-13-benzoxazol-2-yl)-N-(6-methylpyridin-2-yl)-14-diazepane-1-sulfonamide]	–	8.2	100
O=S(=O)(Nc1ccc2ccccc2n1)N1CCN(c2ccccn2)CC1 [Example 156, 4-pyridin-2-yl-N-quinolin-2-ylpiperazine-1-sulfonamide]	92.9	17	–
COc1cccc(N2CCN(S(=O)(=O)Nc3ccc4ccccc4n3)CC2)n1 [Example 165, 4-(6-methoxypyridin-2-yl)-N-quinolin-2-ylpiperazine-1-sulfonamide]	100	1.4	–
COc1ccc2oc(N3CCN(S(=O)(=O)Nc4ccc5ccccc5n4)CC3)nc2c1 [Example 166, 4-(5-methoxy-13-benzoxazol-2-yl)-N-quinolin-2-ylpiperazine-1-sulfonamide]	100	16	–
O=S(=O)(Nc1ccc2ccccc2n1)N1CCN(c2nc3ncccc3o2)CC1 [Example 176, 4-[13]oxazolo[45-b]pyridin-2-yl-N-quinolin-2-ylpiperazine-1-sulfonamide]	70.4	110	–
O=C(c1ccc(N2CCN(S(=O)(=O)Nc3ccc4ccccc4n3)CC2)nc1)N1CCOCC1 [Example 178, 4-[5-(morpholin-4-ylcarbonyl)pyridin-2-yl]-N-quinolin-2-ylpiperazine-1-sulfonamide]	73.3	190	–

Continued by falling Ki (11β-hsd-1 enzyme [2]), values first:

inhibition (11β-hsd-1 enzyme [1]) [%]	Ki (11β-hsd-1 enzyme [2]) [nM]	inhibition at 100 µM (11β-hsd-1 enzyme [1]) [%]	Structure (SMILES)
71	330	–	Cc1cccc(NS(=O)(=O)N2CCCN(c3ncccn3)CC2)n1 [Example 133, N-(6-methylpyridin-2-yl)-4-pyrimidin-2-yl-14-diazepane-1-sulfonamide]
–	250	85.7	Cc1ccc(N2CCN(S(=O)(=O)Nc3cccc(C)n3)CC2=O)cc1 [Example 140, 4-(4-methylphenyl)-N-(6-methylpyridin-2-yl)-3-oxopiperazine-1-sulfoflamide]
68.8	160	–	CCc1cccc(NS(=O)(=O)N2CCCN(c3ncccc3C#N)CC2)n1 [Example 187, 4-(3-cyanopyridin-2-yl)-N-(6-ethylpyridin-2-yl)-14-diazepane-1-sulfonamide]
–	130	75.5	O=C1CN(S(=O)(=O)Nc2ccc3ccccc3n2)CCN1Cc1ccc(F)cc1 [Example 173, 4-(4-fluorobenzyl)-3-oxo-N-quinolin-2-ylpiperazine-1-sulfonamide]
76.7	110	–	Cc1cccc(NS(=O)(=O)N2CCCN(C(=O)OCc3ccccc3)CC2)n1 [Example 134, benzyl 4-{[(6-methylpyridin-2-yl)amino]sulfonyl}-14-diazepane-1-carboxylate]
83.4	96	–	CCc1cccc(NS(=O)(=O)N2CCc3conc3CC2)n1 [Example 181, N-(6-ethylpyridin-2-yl)-4578-tetrahydro-6H-isoxazolo[34-d]azepine-6-sulfonamide]
84.6	68	–	O=C1CN(S(=O)(=O)Nc2ccc3ccccc3n2)CCN1C1CCCC1 [Example 169, 4-cyclopentyl-3-oxo-N-quinolin-2-ylpiperazine-1-sulfonamide]
81.4	38	–	O=C(OCc1ccccc1)N1CCCN(S(=O)(=O)Nc2ccc3ccccc3n2)CC1 [Example 164, benzyl 4-[(quinolin-2-ylamino)sulfonyl]-14-diazepane-1-carboxylate]
–	32	100	O=S(=O)(Nc1ccc2ccccc2n1)N1CCCCCC1 [Example 157, N-quinolin-2-ylazepane-1-sulfonamide]
86.6	28	–	CCOC(=O)N1CCN(S(=O)(=O)Nc2cccc(C)n2)CC1 [Example 129, ethyl 4-{[(6-methylpyridin-2-yl)amino]sulfonyl}piperazine-1-carboxylate]
83.9	26	–	CCc1cccc(NS(=O)(=O)N2CCc3nc(-c4ccccc4)nc(C(=O)NC)c3C2)n1 [Example 148, 6-{[(6-ethylpyridin-2-yl)amino]sulfonyl}-N-methyl-2-phenyl-5678-tetrahydro-pyrido[43-d]pyrimidine-4-carboxamide]
92.2	26	–	N#Cc1cccnc1N1CCN(S(=O)(=O)Nc2ccc3ccccc3n2)CC1 [Example 162, 4-(3-cyanopyridin-2-yl)-N-quinolin-2-ylpiperazine-1-sulfonamide]
90.3	23	–	CCc1cccc(NS(=O)(=O)N2CCCN(c3nc4cc(Cl)ccc4o3)CC2)n1 [Example 150, 4-(5-chloro-13-benzoxazol-2-yl)-N-(6-ethylpyridin-2-yl)-14-diazepane-1-sulfonamide]
100	20	–	O=S(=O)(Nc1ccc2ccccc2n1)N1CCCN(c2nc3cc(Cl)ccc3o2)CC1 [Example 180, 4-(5-chloro-13-benzoxazol-2-yl)-N-quinolin-2-yl-14-diazepane-1-sulfonamide]
91.9	16	–	Cc1cccc(N2CCN(S(=O)(=O)Nc3ccc4ccccc4n3)CC2)n1 [Example 161, 4-(6-methylpyridin-2-yl)-N-quinolin-2-ylpiperazine-1-sulfonamide]
–	11.5	100	CCc1cccc(NS(=O)(=O)N2CCN(c3cccc(OC)n3)CC2)n1 [Example 183, N-(6-ethylpyridin-2-yl)-4-(6-methoxypyridin-2-yl)piperazine-1-sulfonamide]
85.7	11	–	CCOC(=O)N1CCN(S(=O)(=O)Nc2ccc3ccccc3n2)CC1 [Example 160, ethyl 4-[(quinolin-2-ylamino)sulfonyl]piperazine-1-carboxylate]
93.8	9.9	–	COc1ccc2oc(N3CCN(S(=O)(=O)Nc4cccc(C)n4)CC3)nc2c1 [Example 137, 4-(5-methoxy-13-benzoxazol-2-yl)-N-(6-methylpyridin-2-yl)piperazine-1-sulfonamide]
–	8.9	100	CCc1cccc(NS(=O)(=O)N2CCN(c3nc4ccc(Cl)cc4o3)CC2)n1 [Example 186, 4-(6-chloro-13-benzoxazol-2-yl)-N-(6-ethylpyridin-2-yl)piperazine-1-sulfonamide]
–	8.4	100	Cc1cccc(NS(=O)(=O)N2CCN(c3nc4ccc(Cl)cc4o3)CC2)n1 [Example 138, 4-(6-chloro-13-benzoxazol-2-yl)-N-(6-methylpyridin-2-yl)piperazine-1-sulfonamide]
90.6	7.1	–	O=S(=O)(Nc1ccc2ccccc2n1)N1CCCCCCC1 [Example 155, N-quinolin-2-ylazocane-1-sulfonamide]
100	5.1	–	O=S(=O)(Nc1ccc2ccccc2n1)N1CCN(c2ncccn2)CC1 [Example 154, 4-pyrimidin-2-yl-N-quinolin-2-ylpiperazine-1-sulfonamide]
100	1	–	COc1ccc(-c2cnc(N3CCN(S(=O)(=O)Nc4cccc(C)n4)CC3)nc2)cc1 [Example 151, 4-[5-(4-methoxyphenyl)-pyrimidin-2-yl]-N-(6-methylpyridin-2-yl)piperazine-1-sulfonamide]

— patent US20070027118A1 (priority 2005, published 2007)
